Columns and labels:
HCT-116 = assay: cells; conditions: Homo sapiens
[1] = molecular target: T1, Glutaminase kidney isoform, mitochondrial (Homo sapiens, UniProt O94925); assay: Inhibition of GLS1 (unknown origin)
T1 sequence (O94925 whole entry): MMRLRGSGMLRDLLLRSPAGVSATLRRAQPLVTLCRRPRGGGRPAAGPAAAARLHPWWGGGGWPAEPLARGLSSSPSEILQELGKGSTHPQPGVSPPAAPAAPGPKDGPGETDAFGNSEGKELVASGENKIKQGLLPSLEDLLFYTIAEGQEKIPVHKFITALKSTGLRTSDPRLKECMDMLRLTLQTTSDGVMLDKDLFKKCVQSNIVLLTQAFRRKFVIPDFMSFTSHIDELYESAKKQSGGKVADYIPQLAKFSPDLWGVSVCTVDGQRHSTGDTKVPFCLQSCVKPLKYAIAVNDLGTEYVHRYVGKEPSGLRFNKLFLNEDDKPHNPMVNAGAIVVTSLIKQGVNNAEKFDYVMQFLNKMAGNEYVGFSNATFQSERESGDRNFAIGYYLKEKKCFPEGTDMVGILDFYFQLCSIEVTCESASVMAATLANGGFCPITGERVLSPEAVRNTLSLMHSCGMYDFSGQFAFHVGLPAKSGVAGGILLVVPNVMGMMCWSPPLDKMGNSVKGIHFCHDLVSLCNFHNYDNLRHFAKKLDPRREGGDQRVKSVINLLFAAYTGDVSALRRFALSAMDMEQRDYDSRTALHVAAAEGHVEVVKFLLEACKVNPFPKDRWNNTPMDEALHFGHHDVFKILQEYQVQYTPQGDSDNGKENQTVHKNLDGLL

A549 = assay: Antiproliferative activity against human A549 cells assessed as reduction in cell viability; type: functional, cell-based

Row | SMILES | IC50 (HCT-116) | IC50 [1] | IC50 (A549)
1 | Cc1ccccc1CN1CCC(CNC(=O)c2ccc(COCCC3CCN(c4nnc(NC(=O)Cc5ccccc5)s4)CC3)cc2)CC1 | 810 nM | 135 nM | 1260 nM
2 | CCN(CC)CCNC(=O)c1ccc(COCCC2CCN(c3nnc(NC(=O)Cc4ccccc4)s3)CC2)cc1 | 1200 nM | 440 nM | 4380 nM
3 | O=C(Cc1ccccc1)Nc1nnc(CCc2ccc(C(=O)N3CCCCC3)cc2)s1 | > 10000 nM | > 10000 nM | > 10000 nM
4 | CCN1CCC(NC(=O)c2ccc(COC3CCN(c4nnc(NC(=O)Cc5ccccc5)s4)CC3)cc2)CC1 | > 10000 nM | 2550 nM | > 10000 nM
5 | CN1CCC(CNC(=O)c2cccc(COCCC3CCN(c4nnc(NC(=O)Cc5ccccc5)s4)CC3)c2)CC1 | 8120 nM | 802 nM | 9070 nM
6 | O=C(Cc1ccccc1)Nc1nnc(N2CCN(Cc3cccc(C(=O)NCCc4ccc(F)cc4)c3)CC2)s1 | > 10000 nM | – | > 10000 nM
7 | O=C(Cc1ccccc1)Nc1nnc(N2CCC(CCOCc3cccc(C(=O)NCCN4CCCC4)c3)CC2)s1 | 8950 nM | 489 nM | 9680 nM
8 | O=C(Cc1ccccc1)Nc1nnc(N2CCN(Cc3cccc(C(=O)NCCN4CCCCC4)c3)CC2)s1 | 1670 nM | 212 nM | 2030 nM
9 | CC(C)CNC(=O)c1ccc(CN2CCN(c3nnc(NC(=O)Cc4ccccc4)s3)CC2)cc1 | 1090 nM | 146 nM | 2530 nM
10 | CCCCN1CCC(CNC(=O)c2ccc(COCCC3CCN(c4nnc(NC(=O)Cc5ccccc5)s4)CC3)cc2)CC1 | 910 nM | 120 nM | 1290 nM
11 | O=C(Cc1ccccc1)Nc1nnc(CCc2ccc(C(=O)NCCN3CCCC3)cc2)s1 | > 10000 nM | > 10000 nM | > 10000 nM
12 | CCN(CC)CCNC(=O)c1cccc(CN2CCN(c3nnc(NC(=O)Cc4ccccc4)s3)CC2)c1 | 1490 nM | 345 nM | 2420 nM
13 | CCNCCNC(=O)c1ccc(CN2CCN(c3nnc(NC(=O)Cc4ccccc4)s3)CC2)cc1 | 1280 nM | 221 nM | 2260 nM
14 | CC(C)c1ccc(CNC(=O)c2cccc(CN3CCN(c4nnc(NC(=O)Cc5ccccc5)s4)CC3)c2)cc1 | > 10000 nM | – | > 10000 nM
15 | CC(C)N1CCC(CNC(=O)c2cccc(COCCC3CCN(c4nnc(NC(=O)Cc5ccccc5)s4)CC3)c2)CC1 | > 10000 nM | – | > 10000 nM
16 | CC(C)N1CCC(CNC(=O)c2ccc(COCCC3CCN(c4nnc(NC(=O)Cc5ccccc5)s4)CC3)cc2)CC1 | 3050 nM | 365 nM | 2240 nM
17 | CCCCNC(=O)c1ccc(COCC2CCN(c3nnc(NC(=O)Cc4ccccc4)s3)CC2)cc1 | 4980 nM | 530 nM | 5840 nM
18 | COCCNC(=O)c1ccc(CN2CCN(c3nnc(NC(=O)Cc4ccccc4)s3)CC2)cc1 | > 10000 nM | > 10000 nM | > 10000 nM
19 | CN1CCC(CNC(=O)c2ccc(CN3CCN(c4nnc(NC(=O)Cc5ccccc5)s4)CC3)cc2)CC1 | > 10000 nM | > 10000 nM | > 10000 nM
20 | CCCN1CCC(CNC(=O)c2cccc(COCCC3CCN(c4nnc(NC(=O)Cc5ccccc5)s4)CC3)c2)CC1 | 3920 nM | 260 nM | 2010 nM
21 | CN1CCN(c2ccc(C(=O)Nc3cccc(CN4CCN(c5nnc(NC(=O)Cc6ccccc6)s5)CC4)c3)cc2)CC1 | 1530 nM | 89 nM | 1050 nM
22 | O=C(Cc1ccccc1)Nc1nnc(N2CCN(Cc3ccc(C(=O)NCCc4ccc(F)cc4)cc3)CC2)s1 | 570 nM | 300 nM | 2040 nM
23 | O=C(Cc1ccccc1)Nc1nnc(N2CCN(Cc3ccc(C(=O)NCCNc4ccccc4)cc3)CC2)s1 | 1090 nM | 106 nM | 1220 nM
24 | CCN(CC)CCNC(=O)c1cccc(COCCC2CCN(c3nnc(NC(=O)Cc4ccccc4)s3)CC2)c1 | 9030 nM | 621 nM | 7510 nM
25 | Cc1ccc(NC(=O)c2ccc(CN3CCN(c4nnc(NC(=O)Cc5ccccc5)s4)CC3)cc2)cc1 | 1080 nM | 212 nM | 1680 nM
26 | O=C(Cc1ccccc1)Nc1nnc(N2CCC(OCc3ccc(C(=O)NCCN4CCCC4)cc3)CC2)s1 | 3810 nM | 1250 nM | 1250 nM

Row | SMILES | IC50 (HCT-116) | IC50 [1] | IC50 (A549)
27 | CN1CCN(c2cccc(C(=O)Nc3cccc(CN4CCN(c5nnc(NC(=O)Cc6ccccc6)s5)CC4)c3)c2)CC1 | 1190 nM | 77 nM | 980 nM
28 | O=C(Cc1ccccc1)Nc1nnc(N2CCC(CCOCc3ccc(C(=O)NCC4CCN(Cc5cc(F)cc(F)c5)CC4)cc3)CC2)s1 | 800 nM | 120 nM | 1890 nM
29 | CCCNC(=O)c1ccc(CCc2nnc(NC(=O)Cc3ccccc3)s2)cc1 | > 10000 nM | > 10000 nM | > 10000 nM
30 | O=C(Cc1ccccc1)Nc1nnc(N2CCN(Cc3ccc(C(=O)NCCN4CCCC4)cc3)CC2)s1 | 1660 nM | 163 nM | 3650 nM
31 | O=C(Cc1ccccc1)Nc1nnc(N2CCC(CCOCc3cccc(C(=O)N4CCN(c5cccc(F)c5)CC4)c3)CC2)s1 | 8520 nM | 546 nM | 7420 nM
32 | CCCCN1CCC(CNC(=O)c2cccc(COCCC3CCN(c4nnc(NC(=O)Cc5ccccc5)s4)CC3)c2)CC1 | 1080 nM | 160 nM | 1550 nM
33 | O=C(Cc1ccccc1)Nc1nnc(N2CCN(Cc3ccc(C(=O)NCc4cccc(C(F)(F)F)c4)cc3)CC2)s1 | 1490 nM | 253 nM | 1850 nM
34 | CCCNC(=O)c1ccc(COC2CCN(c3nnc(NC(=O)Cc4ccccc4)s3)CC2)cc1 | 4080 nM | 1080 nM | 1080 nM
35 | O=C(Cc1ccccc1)Nc1cccc(CN2CCN(c3nnc(NC(=O)Cc4ccccc4)s3)CC2)c1 | > 10000 nM | – | > 10000 nM
36 | O=C(Cc1ccccc1)Nc1nnc(N2CCN(Cc3ccc(C(=O)NCCN4CCCCC4)cc3)CC2)s1 | 1090 nM | 162 nM | 3280 nM
37 | O=C(Cc1ccccc1)Nc1nnc(N2CCC(CCOCc3cccc(C(=O)NCC4CCN(Cc5cc(F)cc(F)c5)CC4)c3)CC2)s1 | 690 nM | 126 nM | 980 nM
38 | O=C(Cc1ccccc1)Nc1nnc(N2CCN(Cc3cccc(C(=O)NCc4ccc(C(F)(F)F)cc4)c3)CC2)s1 | > 10000 nM | – | > 10000 nM
39 | C=CCCC(=O)N1CCC(CNC(=O)c2cccc(COCCC3CCN(c4nnc(NC(=O)Cc5ccccc5)s4)CC3)c2)CC1 | 4030 nM | 350 nM | 3520 nM
40 | CCCNC(=O)c1ccc(COCCC2CCN(c3nnc(NC(=O)Cc4ccccc4)s3)CC2)cc1 | 2890 nM | 420 nM | 3450 nM
41 | CN1CCC(CNC(=O)c2cccc(CN3CCN(c4nnc(NC(=O)Cc5ccccc5)s4)CC3)c2)CC1 | 1560 nM | 432 nM | 3960 nM
42 | CN1CCN(c2ccc(NC(=O)c3ccc(CN4CCN(c5nnc(NC(=O)Cc6ccccc6)s5)CC4)cc3)cc2)CC1 | 670 nM | 250 nM | 1280 nM
43 | O=C(Cc1ccccc1)Nc1ccc(CN2CCN(c3nnc(NC(=O)Cc4ccccc4)s3)CC2)cc1 | > 10000 nM | – | > 10000 nM
44 | CCN(CC)CCNC(=O)c1ccc(CCc2nnc(NC(=O)Cc3ccccc3)s2)cc1 | > 10000 nM | > 10000 nM | > 10000 nM
45 | O=C(Cc1ccccc1)Nc1nnc(N2CCN(Cc3ccc(C(=O)NC4CCCC4)cc3)CC2)s1 | 1490 nM | 132 nM | 1090 nM
46 | CN1CCC(CNC(=O)c2ccc(COC3CCN(c4nnc(NC(=O)Cc5ccccc5)s4)CC3)cc2)CC1 | > 10000 nM | > 10000 nM | > 10000 nM
47 | CN1CCN(c2cccc(C(=O)Nc3ccc(CN4CCN(c5nnc(NC(=O)Cc6ccccc6)s5)CC4)cc3)c2)CC1 | 1260 nM | 123 nM | 1050 nM
48 | CCN(CC)CCNC(=O)c1ccc(CN2CCN(c3nnc(NC(=O)Cc4ccccc4)s3)CC2)cc1 | 2860 nM | 264 nM | 2070 nM
49 | Cc1cccc(CN(C)C(=O)c2ccc(CN3CCN(c4nnc(NC(=O)Cc5ccccc5)s4)CC3)cc2)c1 | > 10000 nM | > 1000 nM | > 10000 nM
50 | O=C(Cc1ccccc1)Nc1nnc(N2CCC(CCOCc3cccc(C(=O)NCCN4CCCCC4)c3)CC2)s1 | 7050 nM | 555 nM | 8520 nM
51 | O=C(Cc1ccccc1)Nc1nnc(N2CCN(Cc3ccc(C(=O)N4CCC(CO)CC4)cc3)CC2)s1 | 3920 nM | 363 nM | 4060 nM

Reference: ChEMBL document CHEMBL5352409, “Design, synthesis, and pharmacological evaluation of 2-(1-(1,3,4-thiadiazol-2-yl)piperidin-4-yl)ethan-1-ol analogs as novel glutaminase 1 inhibitors” (Eur J Med Chem, 2022)
